In brackets after ≈: the same amount, converted by molar mass. Where two headings read alike, the source gives them in different places.
Experiments:
[1] = system: S. aureus ATCC 13709; assay: MIC, S. aureus ATCC 13709; type: cell-based; settings: for MIC: Staphylococcus aureus
[2] = system: E. coli ATCC 25922; assay: MIC, E. coli ATCC 25922; type: cell-based; settings: for MIC: Escherichia coli; for EC MIC: Table 13, L = NH
[3] = S. aureus, Alamar Blue read after overnight incubation at 35° C.
[4] = E. coli, Alamar Blue read after overnight incubation at 35° C.
[5] = ATCC13709, Table 16, new R4 substituents, read-out: SA MIC
[6] = ATCC25922, Table 16, new R4 substituents, EC8 not defined, read-out: EC8 MIC
[7] = ATCC13709, S. aureus, Alamar Blue read after overnight incubation at 35° C., read-out: MIC Sa
[8] = ATCC25922, E. coli, Alamar Blue read after overnight incubation at 35° C., read-out: MIC Ec

Compound | MIC Sa [1, 3] [µg/mL] | MIC Ec [2, 4] [µg/mL] | MIC [1, 7] [µg/mL] | MIC [2, 8] [µg/mL] | other results
CNc1cc(F)cc2c1[nH]c1nc(Oc3ccc4sc(N)nc4c3)nc(N3CC4CCC(N)C4C3)c12 (stereo not shown) [Compound 4.335] | ≤0.5 | 4 (≈ 7.93 µM) | – | – | –
CNc1cc(F)cc2c1[nH]c1nc(Oc3cnc(C)nc3)nc(N3CCC[C@H]3CN)c12 | – | – | – | – | MIC [1, 5]: 1 µg/mL (≈ 2.37 µM); MIC [2, 6]: 2 µg/mL (≈ 4.73 µM)
CNc1cc(F)cc2c1[nH]c1nc(Oc3cncc(C#N)c3)nc(N3CC4(CCC4N)C3)c12 (stereo not shown) [Compound 4.054] | ≤0.5 | ≤0.5 | – | – | –
CNc1cc(F)cc2c1[nH]c1nc(Sc3cnc4ccc[n+]([O-])c4c3)nc(N3CCC4(CC4N)C3)c12 (stereo not shown) [Compound 1.65] | ≤0.5 | ≤0.5 | – | – | –
CNc1ncnc2c1[nH]c1nc(Oc3cncc(F)c3)nc(N3CC(N)C4(CC4)C3)c12 (stereo not shown) [Compound 7.06] | – | – | 8 (≈ 19 µM) | 64 (≈ 152 µM) | –
CNc1cc(Cl)cc2c1[nH]c1nc(Oc3cnc4ccnn4c3)nc(N3C[C@H]4C[C@@H]3C[C@H]4N)c12 [Compound 10.37] | – | – | – | – | MIC Sa ([1]; Table 18, Sa): ≤ 0.5 µg/mL; MIC Ec ([2]; Table 18, Ec): ≤ 0.5 µg/mL
CNc1cccc2c1[nH]c1nc(Oc3cncnc3)cc(N3CCN(CCN4CCOCC4)CC3)c12 [Compound 3.60] | – | – | 8 (≈ 16.4 µM) | > 64 | –
CNc1cccc2c1[nH]c1nc(Oc3cncc(C#N)c3)cc(N3CCN(CCN)CC3)c12 [Compound 3.55] | – | – | 64 (≈ 145 µM) | > 64 | –
CNc1cc(F)cc2c1[nH]c1nc(Oc3cnc(N4CCOCC4)nc3)nc(N3CC4C(N)C4C3)c12 (stereo not shown) [Compound 4.211] | 16 (≈ 32.6 µM) | >16 | – | – | –
CNc1cc(F)cc2c1[nH]c1nc(Sc3nc4cccnc4[nH]3)nc(N3C[C@H]4C[C@@H]3C[C@H]4N)c12 [Compound 10.38] | – | – | – | – | MIC Sa ([1]; Table 18, Sa): ≤ 0.5 µg/mL; MIC Ec ([2]; Table 18, Ec): ≤ 0.5 µg/mL
CNc1cc(F)cc2c1[nH]c1nc(Oc3ccc(C#N)nc3)nc(N3CCC(N)C3)c12 (stereo not shown) [Compound 4.331] | ≤0.5 | ≤0.5 | – | – | –
CNc1cc(F)cc2c1[nH]c1nc(Oc3cnc(C)nc3)nc(N3CC(N)C(C(=O)NCC(C)O)C3)c12 (stereo not shown) [drawing 1822] | – | – | – | – | MIC [1, 5]: 8 µg/mL (≈ 15.7 µM); MIC [2, 6]: > 16 µg/mL
CNc1cc(F)cc2c1[nH]c1nc(Oc3cnc(C#N)c(C)c3)nc(N3CC4CC(N)C4C3)c12 (stereo not shown) [Compound 4.323] | ≤0.5 | 1 (≈ 2.18 µM) | – | – | –
CNc1cccc2c1[nH]c1nc(Oc3cnc(N)nc3)cc(N3CC4C(N)C4C3)c12 (stereo not shown) [Compound 3.32] | – | – | ≤ 0.5 | 2 (≈ 4.97 µM) | –
CNc1cc(F)cc2c1[nH]c1nc(Oc3ccc4c(c3)C(=O)NC4)nc(N3CC4CCNC4C3)c12 (stereo not shown) [Compound 4.269] | ≤0.5 | 4 (≈ 8.45 µM) | – | – | –
CNc1cc(F)cc2c1[nH]c1nc(Oc3cncnc3)nc(N3CC4C(N)C4C3)c12 (stereo not shown) [Compound 4.001] | ≤0.5 | ≤0.5 | – | – | –
CNc1cc(F)cc2c1[nH]c1nc(Oc3cnc(C)nc3)nc(N3CC(N)C(C(=O)O)C3)c12 (stereo not shown) | – | – | – | – | MIC [1, 5]: > 16 µg/mL; MIC [2, 6]: > 16 µg/mL
CNc1cccc2c1[nH]c1nc(Oc3cncc(F)c3)cc(N3CCC4(CNC4)C3)c12 [Compound 3.66] | – | – | 8 (≈ 19.1 µM) | > 32 | –
CNc1cccc2c1[nH]c1nc(Sc3cnc4cccnc4c3)nc(N3CCNCC3)c12 [Compound 1.46] | – | – | 2 (≈ 4.52 µM) | 4 (≈ 9.04 µM) | –
CCOC(=O)c1ncc(Oc2nc(N3C[C@H](N)C4(CC4)C3)c3c(n2)[nH]c2c(NC)cc(F)cc23)cn1 [Compound 4.402] | ≤0.5 | ≤0.5 | – | – | –
CNc1cccc2c1[nH]c1nc(Oc3cncc(C(N)=O)c3)cc(N3CC4C(N)C4C3)c12 (stereo not shown) [Compound 3.19] | – | – | 8 (≈ 18.6 µM) | 32 (≈ 74.5 µM) | –
CNc1cc(F)cc2c1[nH]c1nc(Oc3cncc(Cl)c3)nc(N3CC(N)C3)c12 [Compound 4.277] | ≤0.5 | ≤0.5 | – | – | –
CNc1cc(F)cc2c1[nH]c1nc(Oc3cnc(C)nc3)nc(N(C)C3CNC3)c12 [Compound 4.134] | >16 | >16 | – | – | –
CNc1cccc2c1[nH]c1nc(Oc3cncc(C#N)c3)cc(N3CC4C(N)C4C3)c12 (stereo not shown) [Compound 3.27] | – | – | 1 (≈ 2.43 µM) | 4 (≈ 9.72 µM) | –
CNc1cc(F)cc2c1[nH]c1nc(Oc3cnc(C)nc3)nc(N3CC4CCC(N)C4(C)C3)c12 (stereo not shown) [Compound 4.099] | ≤0.5 | 4 (≈ 8.65 µM) | – | – | –

Compound | MIC Sa [1, 3] [µg/mL] | MIC Ec [2, 4] [µg/mL] | MIC [1, 7] [µg/mL] | MIC [2, 8] [µg/mL] | other results
CNc1cccc2c1[nH]c1nc(Oc3cnc(C)nc3)cc(N3CCC4(CC4N)C3)c12 (stereo not shown) [Compound 3.42] | – | – | ≤ 0.5 | 2 (≈ 4.81 µM) | –
CNc1cc(F)cc2c1[nH]c1nc(Nc3cccnc3)nc(N3C[C@H]4C[C@@H]3C[C@H]4N)c12 [Compound 10.44] | – | – | – | – | MIC Sa ([1]; Table 18, Sa): ≤ 0.5 µg/mL; MIC Ec ([2]; Table 18, Ec): ≤ 0.5 µg/mL
CCOC(=O)c1csc(Nc2nc(N3C[C@H]4CC3C[C@H]4N)c3c(n2)[nH]c2c(NC)cc(F)cc23)n1 | – | – | – | – | SA MIC ([1]; Table 13, L = NH): ≤ 0.5 µg/mL; EC MIC [2]: 1 µg/mL
CNc1cc(F)cc2c1[nH]c1nc(Oc3ccc4sc(C)nc4c3)nc(N3CC4CC(N)CC4C3)c12 (stereo not shown) [Compound 4.321] | ≤0.5 | 1 (≈ 1.99 µM) | – | – | –
CNc1cccc2c1[nH]c1nc(Sc3cnc4ccc[n+]([O-])c4c3)nc(N3CCC4(CC4N)C3)c12 (stereo not shown) [Compound 1.38] | – | – | ≤ 0.5 | 2 (≈ 4.13 µM) | –
CNc1cccc2c1[nH]c1nc(Sc3cnc4cccnc4c3)nc(N3CCC(CO)C3)c12 (stereo not shown) [Compound 1.53] | – | – | ≤ 0.5 | 8 (≈ 17.5 µM) | –
CNc1cccc2c1[nH]c1nc(Oc3cncnc3)cc(Oc3cncnc3)c12 [Compound 3.37] | – | – | 2 (≈ 5.19 µM) | > 64 | –
CNc1cccc2c1[nH]c1nc(Oc3cncnc3)cc(N3CCC(C(N)=O)C3)c12 (stereo not shown) [Compound 3.17] | – | – | 2 (≈ 4.96 µM) | > 16 | –
CNc1cccc2c1[nH]c1nc(Sc3cnc4cccnc4c3)nc(N3CC4C(N)C4C3)c12 (stereo not shown) [Compound 1.12] | – | – | ≤ 0.5 | 1 (≈ 2.2 µM) | –
CNc1cc(F)cc2c1[nH]c1nc(Cc3cnc(C)nc3)nc(N3CC4CC(N)C4C3)c12 (stereo not shown) | – | – | – | – | SA MIC ([1]; Table 11, compounds wherein L = CH2): ≤ 0.5 µg/mL; EC8 MIC ([2]; Table 11, L = CH2, EC8 not defined): 1 µg/mL
CNc1cc(F)cc2c1[nH]c1nc(Nc3cccnc3)nc(N3C[C@H]4CC3C[C@H]4N)c12 | – | – | – | – | SA MIC ([1]; Table 13, L = NH): ≤ 0.5 µg/mL; EC MIC [2]: ≤ 0.5 µg/mL
CNc1cc(F)cc2c1[nH]c1nc(Oc3cnc(C(C)(C)N)nc3)nc(N3C[C@H]4CC3C[C@H]4N)c12 [Compound 4.442] | – | – | 1 (≈ 2.09 µM) | 2 (≈ 4.19 µM) | –
CNc1cc(F)cc2c1[nH]c1nc(Oc3cnc(C)nc3)nc(N3CC[C@@H](CN)C3)c12 | – | – | – | – | MIC [1, 5]: ≤ 0.5 µg/mL; MIC [2, 6]: ≤ 0.5 µg/mL
CNc1cc(F)cc2c1[nH]c1nc(Oc3cnc(C)nc3)nc(-c3cccc(CN)c3F)c12 [Compound 4.447] | – | – | 4 (≈ 8.94 µM) | 16 (≈ 35.8 µM) | –
COc1cccc2c1[nH]c1nc(Oc3cccc(C#N)c3)nc(N3CC4C(N)C4C3)c12 (stereo not shown) [Compound 2.12] | 16 (≈ 38.8 µM) | >64 | – | – | –
CNc1cccc2c1[nH]c1nc(Oc3cncc(F)c3)cc(N3CC(N)C4(CC4)C3)c12 (stereo not shown) [Compound 3.50] | – | – | ≤ 0.5 | 2 (≈ 4.78 µM) | –
CNc1cc(F)cc2c1[nH]c1nc(Oc3cnc4c(c3)C(=O)OC4(C)C)nc(N3CC4C[C@@H](N)C4C3)c12 (stereo partly shown) [Compound 10.73] | – | – | – | – | MIC Sa ([1]; Table 18, Sa): ≤ 0.5 µg/mL; MIC Ec ([2]; Table 18, Ec): ≤ 0.5 µg/mL
CNc1cc(F)cc2c1[nH]c1nc(Oc3cncnc3)nc(N3CCC(C4(N)CC4)C3)c12 (stereo not shown) [Compound 4.017] | ≤0.5 | ≤0.5 | – | – | –
CNc1cc(F)cc2c1[nH]c1nc(Oc3cnc(C)nc3)nc(N3CCC(C4CNC4)C3)c12 (stereo not shown) | – | – | – | – | MIC [1, 5]: ≤ 0.5 µg/mL; MIC [2, 6]: 8 µg/mL (≈ 17.8 µM)
CNc1cc(F)cc2c1[nH]c1nc(Nc3cnc(C)nc3)nc(N3C[C@H]4CC3C[C@H]4N)c12 | – | – | – | – | SA MIC ([1]; Table 13, L = NH): ≤ 0.5 µg/mL; EC MIC [2]: ≤ 0.5 µg/mL
CNc1cccc2c1[nH]c1nc(Oc3cncc(F)c3)cc(N3CC4C(N)C4C3)c12 (stereo not shown) [Compound 3.33] | – | – | ≤ 0.5 | 1 (≈ 2.47 µM) | –
CNc1cc(F)cc2c1[nH]c1nc(Oc3cnc(N4CCOCC4)nc3)nc(N3CC(N)C4(CC4)C3)c12 (stereo not shown) [Compound 4.213] | ≤0.5 | 1 (≈ 1.98 µM) | – | – | –
CNc1cc(F)cc2c1[nH]c1nc(Oc3cnc(C)nc3)nc(N3CC4(CCCNC4)C3)c12 [Compound 4.149] | ≤0.5 | 2 (≈ 4.46 µM) | – | – | –
CNc1cc(F)c(C#N)c2c1[nH]c1nc(Oc3cnc(C)nc3)nc(N3C[C@H]4C[C@@H]3C[C@H]4N)c12 [Compound 10.69] | – | – | – | – | MIC Sa ([1]; Table 18, Sa): ≤ 0.5 µg/mL; MIC Ec ([2]; Table 18, Ec): ≤ 0.5 µg/mL
CNc1cc(F)cc2c1[nH]c1nc(Oc3ccc([C@@H](C)O)nc3)nc(N3CC4[C@H](N)CC4(C)C3)c12 (stereo partly shown) [Compound 10.76] | – | – | – | – | MIC Sa ([1]; Table 18, Sa): ≤ 0.5 µg/mL; MIC Ec ([2]; Table 18, Ec): ≤ 0.5 µg/mL

— patent US10865216B2, “Tricyclic Gyrase inhibitors” (MERCK SHARP & DOHME CORP., priority 2012, dated 2020)
